pIC50: −log10 of the molar value.
Assay: Inhibition of pERK (unknown origin)

- pIC50: 8.15
Structure (SMILES): CC(=O)N1CCN(c2ccc(Nc3nccc(-c4sc(C(C)C)nc4-c4cccc(NS(=O)(=O)c5ccccc5)c4)n3)cn2)CC1
